Results: US11453690B2, “Receptor inhibitor, pharmaceutical composition comprising same, and use thereof” (BEIJING TIDE PHARMACEUTICAL CO., LTD., priority 2018, dated 2022)

Legend:
AT2 Receptor (AT2R) = AT2 Receptor (AT2R) (Homo sapiens (Human), UniProt P50052); experiment: Measurement of inhibitory activity on AT2 receptor (Tag-lite HTRF, Tb-labeled AT2R cells, angiotensin receptor red agonist); format: binding; settings: 1 h room temperature
AT1 Receptor (AT1R) = AT1 Receptor (AT1R) (Homo sapiens (Human), UniProt P30556); experiment: Measurement of inhibitory activity on AT1 receptor (Tag-lite HTRF, Tb-labeled AT1R cells, angiotensin receptor red agonist); format: binding; settings: 1 h room temperature
Protocol: Measurement of Inhibitory Activity on AT1 Receptor ([…])/AT2 Receptor (AT2R)
Through the following steps, the inhibitory activity of the compound on AT1R/AT2R (IC50 value) was determined:
1) An appropriate amount of 1×TLB (Tag-lite Buffer) was prepared and well mixed for use.
2) The compound was diluted by 10 times with ddH2O or DMSO. The compound was then dilute to 4 times of the working concentration with 1×TLB and mixed well for use.
3) 8600 nM Tag-lite angiotensin receptor red agonist was diluted to 12 nM (4×Kd) with 1×TLB.
4) 5 ml 1×TLB was taken into a 15 ml centrifuge tube.
5) After thawing 1 tube of Tb-labeled AT1R/AT2R cells in a 37° C. water bath, the cells were quickly transferred to the 1×TLB in step 4), mixed gently, and centrifuged at 1200 g for 5 minutes at room temperature.
6) The supernatant was aspirated gently, and the cells were resuspended and mixed in 2.7 ml 1×TLB, and then placed at room temperature until use.
7) 10 μl cells were added to all test wells, and 5 μl 4× working solution of the compound from step 2) was added to the corresponding test wells. 5 μl 4× Tag-lite angiotensin receptor red agonist well diluted in step 3) was added to all test wells.
8) After leaving the reaction plate at room temperature for 1 h, data were measured and analyzed using Envision HTRF Reader, and the half inhibitory concentration (IC50) of the compound on AT1R/AT2R was calculated with the GraphPad Prism four-parameter equation.

AT2 Receptor (AT2R), sequence (P50052 whole entry): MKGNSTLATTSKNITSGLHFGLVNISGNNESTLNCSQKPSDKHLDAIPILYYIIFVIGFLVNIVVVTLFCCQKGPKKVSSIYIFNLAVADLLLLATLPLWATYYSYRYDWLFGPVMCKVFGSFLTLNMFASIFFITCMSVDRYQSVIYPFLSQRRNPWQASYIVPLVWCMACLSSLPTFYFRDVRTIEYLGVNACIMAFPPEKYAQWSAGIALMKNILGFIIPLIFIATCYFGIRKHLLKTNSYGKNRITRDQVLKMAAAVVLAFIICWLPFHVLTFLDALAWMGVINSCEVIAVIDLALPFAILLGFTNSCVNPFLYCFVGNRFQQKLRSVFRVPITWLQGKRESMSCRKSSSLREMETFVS
AT1 Receptor (AT1R), sequence (P30556 whole entry): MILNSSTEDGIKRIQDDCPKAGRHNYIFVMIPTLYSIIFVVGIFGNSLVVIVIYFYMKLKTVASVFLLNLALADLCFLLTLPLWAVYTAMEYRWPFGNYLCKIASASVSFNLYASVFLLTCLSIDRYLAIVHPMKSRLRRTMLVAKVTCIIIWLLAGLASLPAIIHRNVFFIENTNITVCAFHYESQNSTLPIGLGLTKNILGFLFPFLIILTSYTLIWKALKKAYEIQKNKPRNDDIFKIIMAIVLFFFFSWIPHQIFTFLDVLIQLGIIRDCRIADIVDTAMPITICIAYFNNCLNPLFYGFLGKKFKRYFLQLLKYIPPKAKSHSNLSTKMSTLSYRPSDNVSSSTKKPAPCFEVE

SMILES	IC50 (AT2 Receptor (AT2R)) [nM]	IC50 (AT1 Receptor (AT1R)) [nM]
CCN(Cc1ccccc1)C(=O)N1[C@H]2CC[C@@H]1[C@@H](C(=O)O)N(C(=O)N(c1ccccc1)c1ccccc1)C2 [Compound C155, (1R,2S,5S)-8-(benzyl (ethyl)carbamoyl)-3-(diphenylcarbamoyl)-3,8-diazabicyclo [3.2.1]octane-2-carboxylic acid]	9.03	> 10000
O=C(O)[C@@H]1[C@H]2CC[C@@H](CN1C(=O)C(c1ccccc1)c1ccccc1)N2C(=O)C(c1ccccc1)c1ccccc1 [Compound C1, (1R,2S,5S)-3,8-bis(2,2-diphenylacetyl)-3,8-diazabicyclo[3.2.1]octane-2-carboxylic acid]	6.67	> 10000
CN(Cc1ccc(C#N)cc1)C(=O)N1[C@H]2CC[C@@H]1[C@H](C(=O)O)N(C(=O)N(c1ccccc1)c1ccccc1)C2 [Compound C167, (1R,2R,5S)-8-((4-cyanobenzyl) (methyl)carbamoyl)-3-(diphenylcarbamoyl)-3,8-diazabicyclo [3.2.1]octane-2-carboxylic acid]	18.9	> 10000
O=C(O)[C@@H]1[C@H]2CC[C@@H](CN1C(=O)N(c1ccccc1)c1ccccc1)N2C(=O)OCc1ccccc1 [Compound C37, (1R,2S,5S)-8-((benzyloxy)carbonyl)-3-(diphenylcarbamoyl)-3,8-diazabicyclo [3.2.1]octane-2-carboxylic acid]	55.3	> 10000
CC(C(=O)N1C[C@@H]2CC[C@H]([C@H]1C(=O)O)N2C(=O)OCc1ccccc1)(c1ccccc1)c1ccccc1 [Compound C157]	27.1	> 10000
O=C(O)[C@@H]1[C@H]2CC[C@@H](CN1C(=O)C(c1ccccc1)c1ccccc1)N2C(=O)OCc1ccccc1 [Compound C34, (1R,2S,5S)-8-((benzyloxy)carbonyl)-3-(2,2-diphenylacetyl)-3,8-diazabicyclo[3.2.1]octane-2-carboxylic acid]	35.2	> 10000
O=C(O)[C@H]1[C@@H]2CC[C@H](CN1C(=O)N1c3ccccc3C=Cc3ccccc31)N2C(=O)C(c1ccccc1)c1ccccc1 [Compound C71, (1S,2R,5R)-3-(5H-dibenzo[bf]azepine-5-carbonyl)-8-(2,2-diphenylacetyl)-3,8-diazabicyclo[3. 2.1]octane-2-carboxylic acid]	50.4	> 10000
CN(Cc1ccccc1)C(=O)N1[C@H]2CC[C@@H]1[C@@H](C(=O)O)N(C(=O)N(c1ccccc1)c1ccccc1)C2 [Compound C112, (1R,2S,5S)-8-(benzyl(methyl)carbamoyl)-3-(diphenylcarbamoyl)-3,8-diazabicyclo [3.2.1]octane-2-carboxylic acid]	21.5	> 10000
CN(Cc1ccccn1)C(=O)N1[C@H]2CC[C@@H]1[C@@H](C(=O)O)N(C(=O)C(c1ccccc1)c1ccccc1)C2 [Compound C123, (1R,2S,5S)-3-(2,2-diphenylacetyl)-8-(methyl(pyridine-2-ylmethyl)carbamoyl)-3,8-diazabicyclo [3.2.1]octane-2-carboxylic acid]	11.7	> 10000
CN(Cc1ccccc1Cl)C(=O)N1[C@H]2CC[C@@H]1[C@@H](C(=O)O)N(C(=O)N(c1ccccc1)c1ccccc1)C2 [Compound C149, (1R,2S,5S)-8-((2-chlorobenzyl) (methyl)carbamoyl)-3-(diphenylcarbamoyl)-3,8-diazabicyclo [3.2.1]octane-2-carboxylic acid]	16.6	> 10000
Cc1ccc(CN(C)C(=O)N2[C@H]3CC[C@@H]2[C@@H](C(=O)O)N(C(=O)N(c2ccccc2)c2ccccc2)C3)cc1 [Compound C162, (1R,2S,5S)-3-(diphenylcarbamoyl)-8-(methyl(4-methylbenzyl)carbamoyl)-3,8-diazabicyclo [3.2.1]octane-2-carboxylic acid]	4.04	> 10000
O=C(O)[C@@H]1[C@H]2CC[C@@H](CN1C(=O)N(c1ccccc1)c1ccccc1)N2C(=O)N(c1ccccc1)c1ccccc1 [Compound C5, (1R,2S,5S)-3,8-bis (diphenylcarbamoyl)-3,8-diazabicyclo [3.2.1]octane-2-carboxylic acid]	15.3	> 10000
COc1ccc(CN(C)C(=O)N2[C@H]3CC[C@@H]2[C@@H](C(=O)O)N(C(=O)N(c2ccccc2)c2ccccc2)C3)cc1 [Compound C166]	4.42	> 10000
O=C(O)[C@@H]1[C@H]2CC[C@@H](CN1C(=O)C(c1ccccc1)c1ccccc1)N2C(=O)Nc1ccccc1 [Compound C83, (1R,2S,5S)-3-(2,2-diphenylacetyl)-8-(phenylcarbamoyl)-3,8-diazabicyclo [3.2.1]octane-2-carboxylic acid]	18.1	> 10000
O=C(O)[C@@H]1[C@H]2CC[C@@H](CN1C(=O)C(c1ccccc1)c1ccccc1)N2C(=O)Oc1ccccc1 [Compound C79, (1R,2S,5S)-3-(2,2-diphenylacetyl)-8-(phenoxycarbonyl)-3,8-diazabicyclo[3.2.1]octane-2-carboxylic acid]	24.6	> 10000
CN(Cc1ccccc1)C(=O)N1[C@H]2CC[C@@H]1[C@@H](C(=O)O)N(C(=O)C(c1ccccc1)c1ccccc1)C2 [Compound C82, (1R,2S,5S)-8-(benzyl(methyl)carbamoyl)-3-(2,2-diphenylacetyl)-3,8-diazabicyclo[3.2.1]octane-2-carboxylic acid]	3.98	> 10000
O=C(O)[C@@H]1[C@H]2CC[C@@H](CN1C(=O)N(c1ccccc1)c1ccccc1)N2C(=O)C(c1ccccc1)c1ccccc1 [Compound C12, (1R,2S,5S)-8-(2,2-diphenylacetyl)-3-(diphenylcarbamoyl)-3,8-diazabicyclo [3.2.1]octane-2-carboxylic acid]	17.1	> 10000
O=C(O)[C@@H]1C2CCC(CC2OCc2ccccc2)N1C(=O)C(c1ccccc1)c1ccccc1 (stereo in doubt) [Compound C283, (1S,3S,4S)-5-(benzyloxy)-2-(2,2-diphenylacetyl)-2-azabicyclo[2.2.2]octane-3-carboxylic acid]	46.3	> 10000
O=C(O)[C@@H]1[C@H]2CC[C@@H](CN1C(=O)C(c1ccccc1)c1ccccc1)N2C(=O)NCc1ccccc1 [Compound C78, (1R,2S,5S)-8-(benzylcarbamoyl)-3-(2,2-diphenylacetyl)-3,8-diazabicyclo[3. 2.1]octane-2-carboxylic acid]	55	> 10000
O=C(O)[C@@H]1[C@H]2CC[C@@H](CN1C(=O)N(c1ccccc1)c1ccccc1)N2C(=O)N1CCCCC1c1ccccc1 (stereo partly drawn) [Compound C146, (1R,2S,5S)-3-(diphenylcarbamoyl)-8-(2-phenylpiperidine-1-carbonyl)-3,8-diazabicyclo [3.2.1]octane-2-carboxylic acid]	14	
CCN(Cc1ccccc1F)C(=O)N1[C@H]2CC[C@@H]1[C@@H](C(=O)O)N(C(=O)N(c1ccccc1)c1ccccc1)C2 [Compound C156, (1R,2S,5S)-3-(diphenylcarbamoyl)-8-(ethyl(2-fluorobenzyl)carbamoyl)-3,8-diazabicyclo [3.2.1]octane-2-carboxylic acid]	10.1	
CCc1ccc(CN(C)C(=O)N2[C@H]3CC[C@@H]2[C@@H](C(=O)O)N(C(=O)N(c2ccccc2)c2ccccc2)C3)cc1 [Compound C164, (1R,2S,5S)-3-(diphenylcarbamoyl)-8-((4-ethylbenzyl) (methyl)carbamoyl)-3,8-diazabicyclo[3.2.1] octane-2-carboxylic acid]	4.35	
CC1(N(Cc2ccsc2)C(=O)N2[C@H]3CC[C@@H]2[C@@H](C(=O)O)N(C(=O)N(c2ccccc2)c2ccccc2)C3)CC1 [Compound C198]	10.2	
CC(c1ccsc1)N(C)C(=O)N1[C@H]2CC[C@@H]1[C@@H](C(=O)O)N(C(=O)N(c1ccccc1)c1ccccc1)C2 (stereo partly drawn) [Compound C229, (1R,2S,5S)-3-(diphenylcarbamoyl)-8-(methyl (1-(thiophene-3-yl)ethyl)carbamoyl)-3,8-diazabicyclo[3.2.1] octane-2-carboxylic acid]	10.1	
O=C(O)[C@@H]1[C@H]2CC[C@@H](CN1C(=O)N(c1ccccc1)c1ccccc1)N2C(=O)N(Cc1ccccc1)CC(F)(F)F [Compound C128, (1R,2S,5S)-8-(benzyl(2,2,2-trifluoroethyl)carbamoyl)-3-(diphenylcarbamoyl)-3,8-diazabicyclo [3.2.1]octane-2-carboxylic acid]	21.5	
CC(Cc1ccccc1)C(=O)N1[C@H]2CC[C@@H]1[C@@H](C(=O)O)N(C(=O)C(c1ccccc1)c1ccccc1)C2 (stereo partly drawn) [Compound C230, (1R,2S,5S)-3-(2,2-diphenylacetyl)-8-(2-methyl-3-phenylpropionyl)-3,8-diazabicyclo [3.2.1]octane-2-carboxylic acid]	50.2	
CN(Cc1ccsc1)C(=O)N1[C@H]2CC[C@@H]1[C@@H](C(=O)O)N(C(=O)C(c1ccccc1)c1ccccc1)C2 [Compound C187, (1R,2S,5S)-3-(2,2-diphenylacetyl)-8-(methyl(thiophene-3-ylmethyl)carbamoyl)-3,8-diazabicyclo [3.2.1]octane-2-carboxylic acid]	3.75	
